# Target: T1, TRPV1 channels (Homo sapiens, UniProt Q8NER1)
# T1 construct: expressed in transfected cells; host or cells: HEK TRex (HEK 293 T-REx) cells stably carrying a tetracycline-inducible TRPV1 transgene
# Test: Calcium assay (Fluo-4) in HEK-TRPV1 cells, dose response comparison
# Assay type: cell-based
# Conditions: Fluo-4 loaded, 1 mM external calcium chloride, 0-20 seconds baseline, compound added at 20 seconds, FIGS. 1A-1D
# Protocol: Molecular Pharmacology, 2016, volume 90, pages 300-308) HEK 293 cells with TRPV1 channels have been used as model systems (P. Geppetti and M. Trevisani, Activation and sensitisation of the vanilloid receptor: role in gastrointestinal inflammation and function, British Journal of Pharmacology, 2004, volume 141, pages 1313-1320);
# HEK TRexTRPV1 cultured in DMEM, 10% Fetal Bovine Serum, 2 mM L-glutamine, 10 microgramg/ml Blasticidin (Calbiochem, San Diego Calif.), […] Zeocin (InvivoGen, San Diego Calif.), followed by inducing indicated transgene expression using 1 microgram/ml Tetracycline for 16-24 hrs. Comparisons made to untransfected HEK cells or HEKTRexTRPV1 with or without induction.
# Cells washed and incubated with 0.2 micromolar Fluo-4 [54] for 30 minutes at 37° C. in a standard modified Ringer's solution of the following composition (in mM): NaCl 145, KCl 2.8, CsCl 10, CaCl2 10, MgCl2 2, glucose 10, Hepes. NaOH 10, pH 7.4, 330 mOsm. Cells transferred to 96-well plates at 50,000 cells/well and stimulated as indicated. Calcium signals acquired using a Flexstation 3 (Molecular Devices, Sunnydale, USA). Data are analyzed according to the methods in 1. Diaz-Franulic, J. Caceres-Molina, R. V. Sepulveda, F. Gonzalez-Nilo, R. Latorre, Structure-Driven Pharmacology of Transient Receptor Potential Channel Vanilloid 1, Molecular Pharmacology, 2016, volume 90, pages 300-8. […]
# T1 sequence (Q8NER1 whole entry): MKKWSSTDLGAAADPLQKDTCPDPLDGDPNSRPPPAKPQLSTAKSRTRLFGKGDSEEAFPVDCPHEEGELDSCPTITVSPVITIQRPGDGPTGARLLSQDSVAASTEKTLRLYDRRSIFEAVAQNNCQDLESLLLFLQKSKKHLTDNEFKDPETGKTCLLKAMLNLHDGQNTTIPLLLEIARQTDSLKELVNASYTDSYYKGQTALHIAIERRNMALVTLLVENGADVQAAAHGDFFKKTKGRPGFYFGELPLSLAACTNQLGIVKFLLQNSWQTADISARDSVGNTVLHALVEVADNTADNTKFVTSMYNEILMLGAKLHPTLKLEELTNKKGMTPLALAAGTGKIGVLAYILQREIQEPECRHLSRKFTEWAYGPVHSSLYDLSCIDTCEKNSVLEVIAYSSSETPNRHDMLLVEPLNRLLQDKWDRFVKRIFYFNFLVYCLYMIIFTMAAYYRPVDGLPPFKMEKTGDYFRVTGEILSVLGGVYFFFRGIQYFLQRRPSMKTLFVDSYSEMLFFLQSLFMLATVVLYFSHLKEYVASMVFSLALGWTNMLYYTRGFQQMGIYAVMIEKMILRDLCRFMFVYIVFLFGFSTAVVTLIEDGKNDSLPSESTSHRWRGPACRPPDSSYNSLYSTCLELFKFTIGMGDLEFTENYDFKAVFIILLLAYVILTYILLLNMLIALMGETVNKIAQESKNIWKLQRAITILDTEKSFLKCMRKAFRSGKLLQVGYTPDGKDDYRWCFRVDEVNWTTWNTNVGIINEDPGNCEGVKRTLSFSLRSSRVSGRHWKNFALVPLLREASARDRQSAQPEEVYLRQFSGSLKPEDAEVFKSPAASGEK
compound,measurement,value
"C=C(C)[C@@H]1CCC(C)=C[C@H]1c1c(O)cc(CCCCC)cc1O [cannabidiol (11, CBD), Cannabidiol]","“biological finger print” and dose response on TRPV 1 channels (calcium signal), synthesized versus reference standard cannabidiol",same “biological finger print” and dose response

# — patent US12252477B2, “Applications of known and novel cannabinoids” (Bessor Pharma, LLC, priority 2018, dated 2025)
